In patent US8846746B2, “Pyrazole compound and pharmaceutical use thereof” (Japan Tobacco Inc., priority 2011, dated 2014) one finds IC50 and inhibition data, which are given here for 49 compounds.

human SGLT1, sequence (P13866 whole entry): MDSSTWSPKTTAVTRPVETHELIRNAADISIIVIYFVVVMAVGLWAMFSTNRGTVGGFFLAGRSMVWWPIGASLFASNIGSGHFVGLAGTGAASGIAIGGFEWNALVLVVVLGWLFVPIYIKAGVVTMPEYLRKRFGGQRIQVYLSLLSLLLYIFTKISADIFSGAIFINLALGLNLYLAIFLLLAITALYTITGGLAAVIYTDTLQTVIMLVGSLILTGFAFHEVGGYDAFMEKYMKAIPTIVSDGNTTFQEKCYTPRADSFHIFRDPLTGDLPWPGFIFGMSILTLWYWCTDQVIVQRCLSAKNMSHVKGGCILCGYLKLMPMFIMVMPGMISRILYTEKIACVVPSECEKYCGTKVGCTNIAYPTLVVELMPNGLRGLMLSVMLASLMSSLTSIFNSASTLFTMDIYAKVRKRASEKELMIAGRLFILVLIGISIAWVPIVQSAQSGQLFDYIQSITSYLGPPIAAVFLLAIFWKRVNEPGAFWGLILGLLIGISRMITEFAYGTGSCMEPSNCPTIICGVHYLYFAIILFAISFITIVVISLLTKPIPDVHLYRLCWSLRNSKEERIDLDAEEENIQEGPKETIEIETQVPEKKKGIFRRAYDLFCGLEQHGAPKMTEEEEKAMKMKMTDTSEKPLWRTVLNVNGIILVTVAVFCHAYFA

One assay has as its target human SGLT1 (Homo sapiens (Human), UniProt P13866). The experiment in a line: SGLT1 inhibitory activity: 14C-AMG uptake into CHO-K1 cell line stably expressing human SGLT1. The assay is classed as cell-based. Conditions: 14C-AMG uptake, CHO-K1 cells stably expressing human SGLT1. In a few lines: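 Human SGLT1 was stably expressed in CHO-K1 cells. Cells were first held 20 min in sodium-free buffer, then exposed to compound in Na(+)/BSA buffer with tracer and AMG (2 mM in the added solution).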
`CCCc1cccc(-c2cc(NC(=O)[C@@H]3CNC(=O)N3CCC)nn2-c2ccccc2)c1` [Example 297]: the IC50 (in general, the concentration at which inhibition is half-maximal) is 0.071 µM. This counts as double-digit nanomolar.

Compound `CC(C)OCc1cccc(-c2cc(NC(=O)[C@@H]3CNC(=O)C3)nn2-c2ccccc2)c1` [Example 299] displayed an IC50 of 0.033 µM. Compared with the last compound, the IC50 is about 2.2-fold lower.

Compound `CCCOCc1cccc(-c2cc(NC(=O)[C@@H]3CNC(=O)C3)nn2-c2ccccc2)c1` [Example 300] showed an IC50 of 0.038 µM.

Turning to `CC(C)Oc1cccc(-c2cc(NC(=O)[C@@H]3CNC(=O)C3)nn2-c2ccccc2)c1` [Example 301], half-maximal inhibition (IC50) was put at 0.063 µM.

`CCCc1cccc(-c2cc(NC(=O)C3CCS(=O)(=O)CC3)nn2-c2ccccc2)c1` [Example 302]: the IC50 is 0.0015 µM.

As for `CCCc1cccc(-c2cc(NC(=O)[C@H]3CNC(=O)N3CC)nn2-c2ccccc2)c1` [Example 303], it took 0.0047 µM to reach half-maximal inhibition (IC50).

On to `CCCc1cccc(-c2cc(NC(=O)[C@H]3CNC(=O)N3CCC)nn2-c2ccccc2)c1` [Example 304], for which the half-maximal inhibitory concentration (IC50) is 0.01 µM.

In turn, `O=C1NC[C@H](C(=O)Nc2cc(-c3cccc(COCC(F)(F)F)c3)n(-c3ccccc3)n2)O1` [Example 305] gave an IC50 of 0.029 µM.

On to `CCCCc1cccc(-c2cc(NC(=O)[C@H]3CNC(=O)O3)nn2-c2ccccc2)c1` [Example 306], for which inhibition was half-maximal at 0.013 µM (IC50).

Compound `CC(C)OCc1cccc(-c2cc(NC(=O)[C@H]3CNC(=O)C3)nn2-c2ccccc2)c1` [Example 311] gave an IC50 of 0.0175 µM. This IC50 and that of the compound before are within 1.5-fold of each other.

Consider `CCCOCc1cccc(-c2cc(NC(=O)[C@H]3CNC(=O)C3)nn2-c2ccccc2)c1` [Example 312], for which the IC50 came to 0.022 µM. The IC50 values of the last two compounds are within 1.5-fold of each other.

Compound `CC(C)(C)OCc1cccc(-c2cc(NC(=O)[C@@H]3CNC(=O)C3)nn2-c2ccccc2)c1` [Example 313] displayed an IC50 of 0.0195 µM.

In turn, `CC(C)COCc1cccc(-c2cc(NC(=O)[C@@H]3CNC(=O)C3)nn2-c2ccccc2)c1` [Example 314] returned an IC50 of 0.015 µM.

As to `CC(C)(C)COCc1cccc(-c2cc(NC(=O)[C@@H]3CNC(=O)C3)nn2-c2ccccc2)c1` [Example 315], half-maximal inhibition (IC50) was put at 0.0155 µM. This IC50 and that of the compound before are within 1.5-fold of each other.

With `CCCCOc1cccc(-c2cc(NC(=O)[C@@H]3CNC(=O)C3)nn2-c2ccccc2)c1` [Example 316], the IC50 was 0.039 µM.

As for `CCCc1cccc(-c2cc(NC(=O)C3CC[S+]([O-])CC3)nn2-c2ccccc2)c1` (stereo not shown) [Example 318], the IC50 turned out to be 0.0032 µM.

In turn, `CC(C)CCOc1cccc(-c2cc(NC(=O)[C@@H]3CNC(=O)C3)nn2-c2ccccc2)c1` [Example 319] showed an IC50 of 0.028 µM.

`CC(C)Oc1cccc(-c2cc(NC(=O)[C@H]3CNC(=O)C3)nn2-c2ccccc2)c1` [Example 321] showed an IC50 of 0.022 µM.

The compound `CCCc1cccc(-c2cc(NC(=O)[C@@H]3CNC(=O)C3)nn2-c2cc(C)cc(C)c2)c1` [Example 322] had an IC50 of 0.0047 µM.

`CCCc1cccc(-c2cc(NC(=O)[C@@H]3CNC(=O)C3)nn2-c2cccc(C)c2C)c1` [Example 323]: the IC50 came out at 0.0048 µM.

`CCCc1cccc(-c2cc(NC(=O)[C@@H]3CNC(=O)C3)nn2-c2cc(C)ccc2C)c1` [Example 324]: the IC50 is 0.0022 µM.

`CCCc1cccc(-c2cc(NC(=O)[C@@H]3CNC(=O)C3)nn2-c2c(C)cccc2C)c1` [Example 325] registered an IC50 of 0.047 µM.

In turn, `CCCOC(C)(C)c1cccc(-c2cc(NC(=O)[C@@H]3CNC(=O)C3)nn2-c2ccccc2)c1` [Example 326] displayed an IC50 of 0.015 µM.

In turn, `CCCc1cccc(-c2cc(NC(=O)[C@H]3CNC(=O)N3C(C)C)nn2-c2ccccc2)c1` [Example 328] came in with an IC50 of 0.029 µM.

In the case of `CCC(CC)OCc1cccc(-c2cc(NC(=O)[C@@H]3CNC(=O)C3)nn2-c2ccccc2)c1` [Example 332], the IC50 was determined as 0.022 µM.

As to `C[C@@H](OCc1cccc(-c2cc(NC(=O)[C@@H]3CNC(=O)C3)nn2-c2ccccc2)c1)C(F)(F)F` [Example 334], the midpoint of inhibition, the IC50, lay at 0.0063 µM.

In turn, `C[C@H](OCc1cccc(-c2cc(NC(=O)[C@@H]3CNC(=O)C3)nn2-c2ccccc2)c1)C(F)(F)F` [Example 335] displayed a 50% inhibitory concentration (IC50) of 0.016 µM.

The compound `O=C1NC[C@H](C(=O)Nc2cc(-c3cccc(COCCC(F)(F)F)c3)n(-c3ccccc3)n2)O1` [Example 337] returned an IC50 of 0.032 µM. Compared with the last compound, the IC50 is about 2-fold higher.

On to `CCCc1cccc(-c2cc(NC(=O)[C@@H]3CNC(=O)C3)nn2-c2cccc(OCc3ccccc3)c2)c1` [Example 340], for which the IC50 is 0.016 µM.

As to `CCCc1cccc(-c2cc(NC(=O)[C@@H]3CNC(=O)C3)nn2-c2cccc(O)c2)c1` [Example 341], the midpoint of inhibition, the IC50, lay at 0.06 µM.

As for `CCCc1cccc(-c2cc(NC(=O)[C@@H]3CNC(=O)C3)nn2-c2cccc(OC)c2)c1` [Example 343], 0.0072 µM corresponded to half-maximal inhibition (IC50).

Turning to `CCCc1cccc(-c2cc(NC(=O)[C@@H]3CNC(=O)C3)nn2-c2cccc(OC(C)C)c2)c1` [Example 344], the IC50 came to 0.00335 µM.

Regarding `CCCc1cccc(-c2cc(NC(=O)[C@@H]3CNC(=O)N3CCOC)nn2-c2ccccc2)c1` [Example 345], the IC50 worked out at 0.0079 µM. This IC50 is about 2.4-fold higher than that of the compound before.

In turn, `CCCc1cccc(-c2cc(NC(=O)[C@H]3CNC(=O)N3CCOC)nn2-c2ccccc2)c1` [Example 346] gave a concentration for half-maximal inhibition (IC50) of 0.0027 µM.

In the case of `O=C1NC[C@H](C(=O)Nc2cc(-c3cccc(COCC(F)(F)F)c3)n(-c3ccccc3)n2)N1` [Example 349], the 50% inhibitory concentration (IC50) is 0.072 µM.

Compound `CC[C@@H](C)OCc1cccc(-c2cc(NC(=O)[C@@H]3CNC(=O)C3)nn2-c2ccccc2)c1` [Example 350] displayed an IC50 of 0.025 µM.

Compound `CC[C@H](C)OCc1cccc(-c2cc(NC(=O)[C@@H]3CNC(=O)C3)nn2-c2ccccc2)c1` [Example 351] displayed an IC50 of 0.032 µM. The IC50 values of the last two compounds are within 1.5-fold of each other.

Consider `CC(C)(OCc1cccc(-c2cc(NC(=O)[C@@H]3CNC(=O)C3)nn2-c2ccccc2)c1)C(F)(F)F` [Example 352], for which half-maximal inhibition (IC50) required 0.014 µM.

As to `CC(OCc1cccc(-c2cc(NC(=O)[C@@H]3CNC(=O)C3)nn2-c2ccccc2)c1)(C(F)(F)F)C(F)(F)F` [Example 353], inhibition was half-maximal at 0.016 µM (IC50).

The compound `O=C1NC[C@H](C(=O)Nc2cc(-c3cccc(COCCC(F)(F)F)c3)n(-c3ccccc3)n2)N1` [Example 354] displayed an IC50 of 0.079 µM.

`CC(C)(C)C(=O)c1cccc(-c2cc(NC(=O)[C@@H]3CNC(=O)C3)nn2-c2ccccc2)c1` [Example 356] gave an IC50 of 0.011 µM.

The assay is the same for the next values; noted with them: CHO-K1, at 0.1 uM.
As for `CCCN1C(=O)NC[C@H]1C(=O)Nc1cc(-c2cccc(OC(F)(F)F)c2)n(-c2ccccc2)n1` [Example 298], the inhibition (usually the drop in the measured response relative to a control, in per cent) at 0.1 µM turned out to be 38%.

As to `CCC1C(=O)NCC1C(=O)Nc1cc(-c2cccc(OC(F)(F)F)c2)n(-c2ccccc2)n1` (stereo not shown) [Example 310], the inhibition at 0.1 µM came out at 42%.

As to `CCCc1cccc(-c2cc(NC(=O)C3CC[S+]([O-])CC3)nn2-c2ccccc2)c1` (stereo not shown) [Example 317], 0.1 µM produced 40% inhibition.

Still in this assay, the particulars now being: CHO-K1, at 0.3 uM.
In turn, `CCCc1cccc(-c2cc(NC(=O)[C@@H]3CNC(=O)N3C(C)C)nn2-c2ccccc2)c1` [Example 327] gave an inhibition at 0.3 µM of 15%.

`CCCc1cccc(-c2cc(NC(=O)[C@@H]3CN(CC)C(=O)N3)nn2-c2ccccc2)c1` [Example 329] displayed an inhibition at 0.3 µM of 35%.

For the compound `CCCc1cccc(-c2cc(NC(=O)[C@H]3CN(CC)C(=O)N3)nn2-c2ccccc2)c1` [Example 330], 0.3 µM produced 11% inhibition.

`CCCc1cccc(-c2cc(NC(=O)[C@@H]3CNC(=O)N3CC(=O)O)nn2-c2ccccc2)c1` [Example 347]: the inhibition at 0.3 µM worked out at 11%.

`CCCc1cccc(-c2cc(NC(=O)[C@H]3CNC(=O)N3CC(=O)O)nn2-c2ccccc2)c1` [Example 348] gave an inhibition at 0.3 µM of 26%.
